{"source": "patent US20260117174A1", "about": "“PRODUCTION METHOD OF THREE-DIMENSIONAL CELL CULTURE, CULTURE METHOD OF THREE-DIMENSIONAL CELL CULTURE, THREE-DIMENSIONAL CELL CULTURE, AND EVALUATION METHOD OF TEST SUBSTANCE” (FUJIFILM Corporation, priority 2023, published 2026)", "system": "three-dimensional co-culture of astrocytes, neurons and microglia", "test": "Intercellular interactions during neuroinflammation: NF-κB p65 immunostaining of the three-dimensional co-culture after LPS treatment", "type": "cell-based, human", "conditions": "100 ng/ml final concentration; fixed 0, 0.5, 1, 3, 6 and 24 hours after treatment; co-culture cultured for 3 weeks", "experimental": "• The three-dimensional co-culture that had been cultured for 3 weeks was treated with Lipopolysaccharide (LPS) from E. coli 0127 (FUJIFILM Wako Pure Chemical Corporation, 124-05151) such that the final concentration was 100 ng/ml, and fixed by treating, for 30 minutes, with a 4% paraformaldehyde-phosphate buffer solution (FUJIFILM Wako Pure Chemical Corporation, 161-20141) at 0, 0.5, 1, 3, 6, and 24 hours after the treatment. After washing with PBS(-), the co-culture was treated with Triton (registered trademark) X-100 solution (BioVision, 2104-100) diluted to 0.4% with PBS(-) for 15 minutes to perform permeation treatment. After the permeation treatment, the co-culture was treated with a BSA solution (Sigma-Aldrich, A416) adjusted at a concentration of 4% with PBS(-) for 30 minutes to perform blocking. […] After washing with PBS(-), imaging was performed with a confocal quantitative image cytometer CQ1 (Yokogawa Electric Corporation, Cell Voyager (registered trademark) CQ1) to acquire images."}
{"substance": "Lipopolysaccharide [LPS]", "values": [{"measurement": "nuclear localization of NF-κB after the LPS treatment", "result": "change in nuclear localization of NF-κB"}]}
